Target: T1, P2X7 (UniProt Q99572)
T1 sequence (Q99572 1-595): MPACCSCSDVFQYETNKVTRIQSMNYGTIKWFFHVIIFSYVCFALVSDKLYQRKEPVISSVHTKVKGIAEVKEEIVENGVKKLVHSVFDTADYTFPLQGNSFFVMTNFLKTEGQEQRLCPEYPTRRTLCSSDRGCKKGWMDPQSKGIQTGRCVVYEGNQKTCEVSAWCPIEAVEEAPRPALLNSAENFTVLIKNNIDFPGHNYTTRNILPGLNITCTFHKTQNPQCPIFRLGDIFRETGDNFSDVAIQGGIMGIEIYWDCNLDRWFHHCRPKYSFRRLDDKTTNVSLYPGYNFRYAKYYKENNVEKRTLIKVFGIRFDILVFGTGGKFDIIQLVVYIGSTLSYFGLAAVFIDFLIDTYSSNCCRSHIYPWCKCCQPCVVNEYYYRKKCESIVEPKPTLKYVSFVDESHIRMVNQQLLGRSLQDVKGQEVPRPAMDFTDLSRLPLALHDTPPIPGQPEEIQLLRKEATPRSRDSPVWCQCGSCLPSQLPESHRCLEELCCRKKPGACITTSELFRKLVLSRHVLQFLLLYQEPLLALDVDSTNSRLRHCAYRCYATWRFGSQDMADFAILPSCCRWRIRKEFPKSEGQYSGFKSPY
Test: pIC50 values for P2X7 (Table 1)
Assay type: cell-based
Procedure: Intracellular Calcium Flux (FLIPR) Assay
Compound and Reagent Preparation
Stock solutions of compounds were prepared from powders as a 10 mM DMSO stock solution. These solutions were stored at RT during the two week period of these experiments to prevent freeze-thaw of the DMSO stocks. The DMSO stocks were added to the appropriate assay buffer at a concentration of 10 μM, and then diluted serially to the final concentrations that were tested. […] The aqueous solutions of compounds as well as ATP (Sigma A7699) and BzATP (Sigma B6396) were prepared fresh for each day of experiment.
1321N1 cells stably expressing the full length human P2X7 gene (1321N1-hP2X7) and HEK293 cells stably expressing the full length rat P2X7 gene (HEK293-rP2X7) were obtained from the Roche Cell Culture Facility. 1321N1-hP2X7 cells were grown in Dulbecco's Modified Eagle's Medium (DMEM) high glucose supplemented with 10% FBS and 250 μg/mL G418. HEK293-rP2X7 cells were grown in DMEM/F-12 supplemented with 10% FBS, 1 mM CaCl2, 2 mM MgCl2, 2 mM L-Glutamine and 500 μg/ml G418. Cells were split such that they never became >70% confluent.
Intracellular Calcium Flux (FLIPR)
On the day prior to the experiment, 1321N1-hP2X7 or HEK293-rP2X7 cells were released into suspension with calcium-free PBS+Versene and washed by centrifugation with calcium-free PBS to remove the Versene.
On the day of the experiment, plates were washed with FLIPR buffer (calcium- and magnesium-free Hank's Balanced Salt Solution (HBSS) supplemented with 10 mM Hepes, 2.5 mM probenecid and 2 mM calcium chloride) using a BIO-TEK 96 channel plate washer and incubated with […] fluo-3 dye at 37° C. for one hr. The dye was then removed by plate washing and the cells were allowed to equilibrate for 20 min at room temperature with antagonist or vehicle (FLIPR buffer). Agonist (100 μM BzATP final concentration for hP2X7; 5 μM BzATP final concentration or rP2X7) was added online with the FLIPR and fluorescence measurements made at 1 sec intervals for 60 sec followed by 3 sec intervals for a further 4 min (5 min total). A final addition of 5 μM ionomycin was made and the maximal BzATP-evoked fluorescence normalized to the maximal ionomycin-evoked fluorescence.

| Compound | pIC50 |
| --- | --- |
| COC(=O)c1cc(Br)c(NC(=O)N2C=CC(=O)C[C@H]2c2ccc(F)cc2)cc1OC [Compound 38, 5-Bromo-4-{[(S)-2-(4-fluoro-phenyl)-4-oxo-3,4-dihydro-2H-pyridine-1-carbonyl]-amino}-2-methoxy-benzoic acid methyl ester] | 6.89 |
| COC(=O)c1cc(Br)c(NC(=O)N2C=CC(=O)C[C@H]2c2cccc(F)c2)cc1OC [Compound 39, 5-Bromo-4-{[(S)-2-(3-fluoro-phenyl)-4-oxo-3,4-dihydro-2H-pyridine-1-carbonyl]-amino}-2-methoxy-benzoic acid methyl ester] | 7.06 |
| O=C1C=CN(C(=O)Nc2cc(OCCO)c(Cl)cc2Br)[C@H](c2ccc(F)cc2)C1 [Compound 40, (S)-2-(4-Fluoro-phenyl)-4-oxo-3,4-dihydro-2H-pyridine-1-carboxylic acid [2-bromo-4-chloro-5-(2-hydroxy-ethoxy)-phenyl]-amide] | 7.607 |
| COc1cc(NC(=O)N2C=CC(=O)CC2c2ccccc2F)c(Br)cc1C (centres unmarked) [Compound 41, 2-(2-Fluoro-phenyl)-4-oxo-3,4-dihydro-2H-pyridine-1-carboxylic acid (2-bromo-5-methoxy-4-methyl-phenyl)-amide] | 6.43 |
| COc1cc(NC(=O)N2C=CC(=O)C[C@H]2c2ccc(F)cc2)c(Br)cc1OC(F)F [Compound 42, (S)-2-(4-Fluoro-phenyl)-4-oxo-3,4-dihydro-2H-pyridine-1-carboxylic acid (2-bromo-4-difluoromethoxy-5-methoxy-phenyl)-amide] | 7.503 |
| COc1cc(NC(=O)N2C=CC(=O)CC2c2ccc(F)c(F)c2)c(Br)cc1C (centres unmarked) [Compound 44, 2-(3,4-Difluoro-phenyl)-4-oxo-3,4-dihydro-2H-pyridine-1-carboxylic acid (2-bromo-5-methoxy-4-methyl-phenyl)-amide] | 7.383 |
| COc1cc(NC(=O)N2C=CC(=O)C[C@H]2c2ccc(F)cc2)ccc1C [Compound 45, (S)-2-(4-Fluoro-phenyl)-4-oxo-3,4-dihydro-2H-pyridine-1-carboxylic acid (3-methoxy-4-methyl-phenyl)-amide] | 6.737 |
| COc1cc(NC(=O)N2C=CC(=O)C[C@H]2c2cccc(F)c2)c(Br)cc1OC(F)F [Compound 46, (S)-2-(3-Fluoro-phenyl)-4-oxo-3,4-dihydro-2H-pyridine-1-carboxylic acid (2-bromo-4-difluoromethoxy-5-methoxy-phenyl)-amide] | 7.293 |
| Cc1cc(Br)c(NC(=O)N2C=CC(=O)C[C@H]2c2ccc(F)cc2)cc1C#N [Compound 48, (S)-2-(4-Fluoro-phenyl)-4-oxo-3,4-dihydro-2H-pyridine-1-carboxylic acid (2-bromo-5-cyano-4-methyl-phenyl)-amide] | 6.84 |
| COc1cc(NC(=O)N2C=CC(=O)C[C@H]2c2ccc(F)cc2)c(F)cc1C [Compound 49, (S)-2-(4-Fluoro-phenyl)-4-oxo-3,4-dihydro-2H-pyridine-1-carboxylic acid (2-fluoro-5-methoxy-4-methyl-phenyl)-amide] | 7.21 |
| O=C1C=CN(C(=O)Nc2cc(OCCO)c(Cl)cc2Br)[C@H](c2cccc(F)c2)C1 [Compound 50, (S)-2-(3-Fluoro-phenyl)-4-oxo-3,4-dihydro-2H-pyridine-1-carboxylic acid [2-bromo-4-chloro-5-(2-hydroxy-ethoxy)-phenyl]-amide] | 7.407 |
| CC(=O)c1cc(NC(=O)N2C=CC(=O)C[C@H]2c2ccc(F)cc2)c(Br)cc1Cl [Compound 51, (S)-2-(4-Fluoro-phenyl)-4-oxo-3,4-dihydro-2H-pyridine-1-carboxylic acid (5-acetyl-2-bromo-4-chloro-phenyl)-amide] | 6.857 |
| Cn1ccc2ccc(NC(=O)N3C=CC(=O)CC3c3ccc(F)cc3)cc21 (centres unmarked) [Compound 52, 2-(4-Fluoro-phenyl)-4-oxo-3,4-dihydro-2H-pyridine-1-carboxylic acid (1-methyl-1H-indol-6-yl)-amide] | 7.065 |
| COc1ccc(C)c(NC(=O)N2C=CC(=O)C[C@H]2c2cccc(F)c2)c1 [Compound 53, (S)-2-(3-Fluoro-phenyl)-4-oxo-3,4-dihydro-2H-pyridine-1-carboxylic acid (5-methoxy-2-methyl-phenyl)-amide] | 8.01 |
| CS(=O)(=O)CCCOc1cc(NC(=O)N2C=CC(=O)C[C@H]2c2ccc(F)cc2)c(Br)cc1Cl [Compound 54, (S)-2-(4-Fluoro-phenyl)-4-oxo-3,4-dihydro-2H-pyridine-1-carboxylic acid [2-bromo-4-chloro-5-(3-methanesulfonyl-propoxy)-phenyl]-amide] | 6.38 |
| COc1cc(NC(=O)N2C=CC(=O)C[C@H]2c2ccc(F)cc2)c(Br)cc1C(=O)OC(C)(C)C [Compound 55, 5-Bromo-4-{[(S)-2-(4-fluoro-phenyl)-4-oxo-3,4-dihydro-2H-pyridine-1-carbonyl]-amino}-2-methoxy-benzoic acid tert-butyl ester] | 5.845 |
| COc1ccc(S(C)(=O)=O)cc1NC(=O)N1C=CC(=O)CC1c1ccc(F)cc1 (centres unmarked) [Compound 56, 2-(4-Fluoro-phenyl)-4-oxo-3,4-dihydro-2H-pyridine-1-carboxylic acid (5-methanesulfonyl-2-methoxy-phenyl)-amide] | 5.11 |
| CC(O)c1cc(NC(=O)N2C=CC(=O)C[C@H]2c2ccc(F)cc2)c(Br)cc1Cl (stereo partly drawn) [Compound 57, (S)-2-(4-Fluoro-phenyl)-4-oxo-3,4-dihydro-2H-pyridine-1-carboxylic acid [2-bromo-4-chloro-5-(1-hydroxy-ethyl)-phenyl]-amide] | 7.42 |
| Cc1cc(F)c(NC(=O)N2C=CC(=O)C[C@H]2c2cccc(F)c2)cc1OCCO [Compound 58, (S)-2-(3-Fluoro-phenyl)-4-oxo-3,4-dihydro-2H-pyridine-1-carboxylic acid [2-fluoro-5-(2-hydroxy-ethoxy)-4-methyl-phenyl]-amide] | 6.43 |
| Cc1cc(F)c(NC(=O)N2C=CC(=O)C[C@H]2c2ccc(F)cc2)cc1OCCO [Compound 59, (S)-2-(4-Fluoro-phenyl)-4-oxo-3,4-dihydro-2H-pyridine-1-carboxylic acid [2-fluoro-5-(2-hydroxy-ethoxy)-4-methyl-phenyl]-amide] | 6.62 |
| COc1cc(NC(=O)N2C=CC(=O)C[C@H]2c2ccc(F)cc2)c(Br)cc1C(N)=O [Compound 60, (S)-2-(4-Fluoro-phenyl)-4-oxo-3,4-dihydro-2H-pyridine-1-carboxylic acid (2-bromo-4-carbamoyl-5-methoxy-phenyl)-amide] | 5.78 |
| O=C1C=CN(C(=O)Nc2cc3c(cc2Br)OC(F)(F)O3)[C@H](c2ccc(F)cc2)C1 [Compound 61, (S)-2-(4-Fluoro-phenyl)-4-oxo-3,4-dihydro-2H-pyridine-1-carboxylic acid (6-bromo-2,2-difluoro-benzo[1,3]dioxol-5-yl)-amide] | 6.365 |
| O=C1C=CN(C(=O)Nc2c(F)cccc2F)C(c2ccc(F)cc2)C1 (centres unmarked) [Compound 62, 2-(4-Fluoro-phenyl)-4-oxo-3,4-dihydro-2H-pyridine-1-carboxylic acid (2,6-difluoro-phenyl)-amide] | 5.51 |
| COc1cc(NC(=O)N2C=CC(=O)C[C@H]2c2ccc(F)cc2)c(Br)cc1C#N [Compound 63, (S)-2-(4-Fluoro-phenyl)-4-oxo-3,4-dihydro-2H-pyridine-1-carboxylic acid (2-bromo-4-cyano-5-methoxy-phenyl)-amide] | 6.74 |
| O=C1C=CN(C(=O)NC23CC4CC(CC(C4)C2)C3)C(c2ccc(F)cc2)C1 (centres unmarked) [Compound 64, 2-(4-Fluoro-phenyl)-4-oxo-3,4-dihydro-2H-pyridine-1-carboxylic acid adamantan-1-ylamide] | 5.98 |
| COc1ccc(OC)c(NC(=O)N2C=CC(=O)CC2c2ccc(F)cc2)c1 (centres unmarked) [Compound 65, 2-(4-Fluoro-phenyl)-4-oxo-3,4-dihydro-2H-pyridine-1-carboxylic acid (2,5-dimethoxy-phenyl)-amide] | 6.23 |
